{"source": "patent US20240261236A1", "about": "“METHODS OF USING NMDA RECEPTOR ANTAGONISTS” (Seelos Therapeutics, Inc., priority 2021, published 2024)", "tested_on": "adults with major depressive disorder (MDD) who are at imminent risk of suicide", "experiment": "S-STS CMCM total score, Phase 2 Part 1", "type": "in vivo, human", "conditions": "for S-STS CMCM score: 90 mg IN+SOC, 24 hours post-administration; for S-STS mean score: baseline 21.9", "excerpt": "The S-STS CMCM (version 01/01/19) is a clinician-rated outcome measure which assesses SI/B on a standard 22-item scale, as well as multiple patient and clinician-rated items. The first 16 items are rated on a Likert-type scale ranging from “not at all” (0 units) to “extremely” (4 units), where select scoring (i.e., 4 specific items are scored based on the highest score on 2 of those items) yields a total score ranging from 0 units to 52 units. The final 6 items are used only when the patient misses a visit and is unable to complete the scale; if that missed visit is due to attempted or completed suicide, the possible maximum score is 100. The CMCM also yields 5 different single-item global assessments: 1) subject-rated likelihood of a suicide attempt; 2) subject-rated treatment needed; 3) clinician global severity of suicidal impulses, thoughts, and behaviors; 4) clinician judgment of suicide risk at this time and level of management needed for suicidality; and 5) clinician judgment of subject's likelihood of making a suicide attempt or of dying by suicide in the next 7 days.\nThe secondary endpoints are the change from baseline at 24 hours, as well as at Day 16, in the following: • (1) S-STS total score • (2) MADRS Total at Day 16 (only) • (3) Clinical Global Impression (CGI) of Severity for SI/B (CGIS-SI/B) and Change in SI/B (CGIC-SI/B) • (4) Patient Global Impression (PGI) of Severity for SI/B (PGIS-SI/B) and Change in SI/B (PGIC-SI/B • (5) S-STS Clinician-Rated Global Severity of Suicidal Impulses, Thoughts, and Behaviors • (6) S-STS Clinician judgment of subject's risk of a suicide attempt or death by suicide at this time • (7) S-STS Clinician judgment of subject's likelihood (risk) of making a suicide attempt or of dying by suicide in the next 7 days • (8) S-STS Subject-rated global severity of suicidal impulses, thoughts, and behavior • (9) S-STS Subject-rated treatment needed score • (10) MADRS item 10 response rate (response ≤3 units) • (11) MADRS Total response (total score ≥50% reduction from baseline) • (12) MADRS Total remission (total score ≤12 units)\nSubjects who were hospitalized due to an imminent risk of suicide were enrolled according to the inclusion criteria. The trial was initiated in the hospital and all subjects received standard of care (SOC) therapy for the duration of the study. Subjects were released from the hospital (approximately Day 7) once stabilized and continued the study in an outpatient manner. […] Following the conclusion of the treatment period, a 2-week safety follow-up was also conducted to determine maintenance of treatment efficacy and to monitor for any additional safety events. See, FIG. 26."}
{"smiles": "CNC1(c2ccccc2Cl)CCCCC1=O", "note": "(racemic) [intranasal racemic ketamine, 1:1 mixture of the two enantiomers of ketamine: (R)-2-(2-chlorophenyl)-2-(methylamino)cyclohexanone and (S)-2-(2-chlorophenyl)-2-(methylamino)cyclohexanone]", "values": [{"measurement": "S-STS CMCM score", "setting": "Subject 1, from 18 units, range 0-52", "value": "zero"}, {"measurement": "S-STS CMCM score", "setting": "Subject 2, from 22 units", "value": 3, "unit": "units"}, {"measurement": "S-STS CMCM mean (SD) change from baseline", "setting": "17 subjects enrolled, 24 hours post-dose", "value": "−20.6 (6.34)"}, {"measurement": "S-STS CMCM mean (SD) change from baseline", "setting": "17 subjects enrolled, Day 16", "value": "−20.9 (3.66)"}, {"measurement": "S-STS: patients (1 patient) with 4 points within-patient change", "setting": "Day 1", "value": 6, "unit": "%"}, {"measurement": "S-STS: patients with >14 points within-patient change from baseline", "setting": "Day 1", "value": 94, "unit": "%"}, {"measurement": "S-STS mean score", "setting": "Day 1", "value": 1.7}, {"measurement": "S-STS mean score", "setting": "Day 16", "value": 0.0}, {"measurement": "S-STS mean score", "setting": "Day 29", "value": 0.0}, {"measurement": "S-STS CMCM mean (SD) change from baseline", "setting": "final follow-up on Day 29/30", "value": "−21.1 (3.71)"}, {"measurement": "mean S-STS CMCM score", "setting": "final follow-up on Day 29/30", "value": "0.0 (0.00)"}]}
